Source: patent US5773239A, “Mannosidase inhibitors, process for their preparation and their use as therapeutic agents” (Mount Sinai Hospital Corporation., priority 1995, dated 1998)

Tests used:
lysosomal mannosidase = test: Lysosomal mannosidase assay (pH 5.0); assay type: biochemical; settings: para-nitrophenyl α-mannose
Experimental: (§1) The assay for rat liver Golgi α-mannosidase II contained 5 mM para-nitrophenylα-mannose, 40 mM sodium acetate pH 5.6, plus serially diluted test compouunds and mannosidase enzyme in a total volume of 50 ul, in 96 well plates. Plates were incubated 45 min at 37° C., then the reaction was stopped with 50 μl of 0.5M sodium carbonate. The absorbance of reaction products was read at 405 nm. The lysosomal mannosidase was done in the same procedure but with 40 mM sodium acetate buffer pH 5.0. The numbers in the table are IC50 values in μM for inhibition of mannosidase activity.

[1] = target: T1, rat liver Golgi α-mannosidase II (Rattus norvegicus, UniProt P28494); test: Rat liver Golgi α-mannosidase II assay; assay type: biochemical; settings: for IC50: para-nitrophenyl α-mannose, pH 5.6, read-out: IC50 ManII; for Ratio: ratio of lyso to ManII IC50 values
T1 construct: The assay for rat liver Golgi α-mannosidase II; from tissue; host or cells: rat liver (Golgi)
T1 sequence (P28494 1-1148): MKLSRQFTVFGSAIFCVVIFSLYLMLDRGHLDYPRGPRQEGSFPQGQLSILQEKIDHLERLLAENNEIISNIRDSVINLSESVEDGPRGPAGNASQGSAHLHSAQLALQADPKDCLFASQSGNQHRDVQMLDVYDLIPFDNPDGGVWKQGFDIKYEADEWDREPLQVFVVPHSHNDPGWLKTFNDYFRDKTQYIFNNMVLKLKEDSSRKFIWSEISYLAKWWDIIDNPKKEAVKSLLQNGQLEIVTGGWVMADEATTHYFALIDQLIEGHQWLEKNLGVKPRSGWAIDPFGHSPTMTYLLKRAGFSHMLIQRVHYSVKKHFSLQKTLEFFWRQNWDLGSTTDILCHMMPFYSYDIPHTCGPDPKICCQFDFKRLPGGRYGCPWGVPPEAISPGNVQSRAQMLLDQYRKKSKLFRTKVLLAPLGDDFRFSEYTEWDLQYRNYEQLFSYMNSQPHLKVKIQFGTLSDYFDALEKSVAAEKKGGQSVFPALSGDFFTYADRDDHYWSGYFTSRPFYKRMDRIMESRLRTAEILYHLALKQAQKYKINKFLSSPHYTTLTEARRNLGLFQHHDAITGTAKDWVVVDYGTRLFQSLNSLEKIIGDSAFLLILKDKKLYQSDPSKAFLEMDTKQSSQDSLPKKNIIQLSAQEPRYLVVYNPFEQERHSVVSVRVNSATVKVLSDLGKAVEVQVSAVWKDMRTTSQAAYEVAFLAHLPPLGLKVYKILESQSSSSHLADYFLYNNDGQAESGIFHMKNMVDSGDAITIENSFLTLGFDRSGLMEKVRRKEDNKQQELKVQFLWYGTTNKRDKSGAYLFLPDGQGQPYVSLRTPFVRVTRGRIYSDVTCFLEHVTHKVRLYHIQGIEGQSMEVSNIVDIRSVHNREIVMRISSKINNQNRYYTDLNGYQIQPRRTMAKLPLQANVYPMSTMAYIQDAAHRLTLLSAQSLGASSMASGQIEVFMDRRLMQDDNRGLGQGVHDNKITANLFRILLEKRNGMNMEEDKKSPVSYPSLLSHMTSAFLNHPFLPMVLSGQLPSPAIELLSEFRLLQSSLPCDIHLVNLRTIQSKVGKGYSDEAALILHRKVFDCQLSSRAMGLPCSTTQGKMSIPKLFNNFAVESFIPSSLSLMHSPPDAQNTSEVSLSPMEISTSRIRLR
Experimental: as §1, with “The absorbance of reaction products was read at 405 nm.” left out

MDAY-D2 tumor cells [2] = test: L-PHA toxicity assay (inhibition of oligosaccharide processing in cells); assay type: cell-based, mouse; settings: MDAY-D2 mouse lymphoma cells; read-out: IC50 for protection of cells from toxicity of LPHA lectin
Experimental: MDAY-D2 tumor cells were inoculated into 96 well micro-test plates at 2×10^4 cells/well, and containing serial dilutions of SW or SW analogues in MEM plus 10% FCS. The cells were cultured for 18-20 hr, followed by the addition of L-PHA at 25 μg/ml for an additional 24 hr. Cell proliferation was measured by adding 0.5 μCi/well of ^3 H-thymidine for 3-4 hr, harvesting onto glass fibre disks using a Titertek harvester and the disks were counted in a liquid scintillation counter. The apparent IC50 values for SW and the analogues are the drug concentrations showing 50% protection from L-PHA toxicity; that is 50% ^3 H-thymidine incorporated compared with cells grown in the absence of L-PHA. In experiments using the esterase inhibitor diethyl p-nitrophenyl phosphate, the compound was added to MDAY-D2 cells 4 hr prior to the α-mannosidase inhibitors and was present through-out the experiment.

[3] = Cellular toxicity / cell growth with compound alone (no L-PHA); assay type: cell-based; settings: MDAY-D2 mouse lymphoma cells; read-out: Toxicity (cellular toxicity observed with compound alone)
MDAY-D2 tumor cells [4] = settings: no drug; cited from earlier work

Row | Compound | IC50 (lysosomal mannosidase) [µM] | selectivity Mannosidase II versus lysosomal mannosidase [1] | IC50 [1] [µM] | Ratio [1] | IC50 (MDAY-D2 tumor cells [2]) [µM] | Concentration at which toxicity was seen with compound alone [3] [µM] | D50 for L-PHA toxicity (MDAY-D2 tumor cells [4]) [µg/mL]
1 | OC[C@@H]1[C@H](O)[C@H](O)CN1Cc1ccccc1 [GD002] | 217 | favourable to Mannosidase II | 19 | 11.42 | – | – | –
2 | CN1C[C@@H](O)[C@@H](O)[C@H]1CO [GD003, N-methyl-DIL] | 13.6 | – | 26.3 | 0.517 | 312 | > 5000 | –
3 | CCCCN1C[C@@H](O)[C@@H](O)[C@H]1CO [GD004, N-butyl-DIL] | 25.5 | – | 50.9 | 0.50 | 625 | > 2500 | –
4 | CCN1C[C@@H](O)[C@@H](O)[C@H]1CO [GD005, N-ethyl-DIL] | 14.3 | – | 33.9 | 0.42 | 312 | > 5000 | –
5 | CCCN1C[C@@H](O)[C@@H](O)[C@H]1CO [GD006, N-propyl-DIL] | 19.2 | – | 22.1 | 0.87 | 156 | > 2500 | –
6 | OC[C@@H]1[C@H](O)[C@H](O)CN1CC1CC1 [GD008, N-cyclo-propyl-methyl-DIL] | 4.9 | – | 8.3 | 0.59 | 40 | > 2500 | –
7 | CC(O)C1[C@H](O)[C@H](O)CN1CC1CC1 (stereo partly drawn) [GD013] | 193 | – | 114 | 1.69 | – | – | –
8 | CC(O)C1[C@H](O)[C@H](O)CN1CC1CCCCC1 (stereo partly drawn) [GD014] | 157 | – | 140 | 1.12 | – | – | –
9 | L-PHA: toxic plant lectin (leukoagglutinin) purchased from Pharmacia | – | – | – | – | – | – | 5
